Consider six molecules from ChEMBL document CHEMBL1201862, “PubChem BioAssay data set” (2004).

Test [1] concerns the target Glutathione-S-transferase (Schistosoma japonicum, UniProt Q26513). Briefly: GST-antibody interaction or FRET quenching – biochemical, TR-FRET, artefact control for Vif-APOBEC3G degradation inhibitor project, dose response (AID 1117362). In kind it is functional.
In test [2] the target is T1, Microphthalmia-associated transcription factor (Homo sapiens, UniProt O75030).
T1 sequence (O75030 whole entry): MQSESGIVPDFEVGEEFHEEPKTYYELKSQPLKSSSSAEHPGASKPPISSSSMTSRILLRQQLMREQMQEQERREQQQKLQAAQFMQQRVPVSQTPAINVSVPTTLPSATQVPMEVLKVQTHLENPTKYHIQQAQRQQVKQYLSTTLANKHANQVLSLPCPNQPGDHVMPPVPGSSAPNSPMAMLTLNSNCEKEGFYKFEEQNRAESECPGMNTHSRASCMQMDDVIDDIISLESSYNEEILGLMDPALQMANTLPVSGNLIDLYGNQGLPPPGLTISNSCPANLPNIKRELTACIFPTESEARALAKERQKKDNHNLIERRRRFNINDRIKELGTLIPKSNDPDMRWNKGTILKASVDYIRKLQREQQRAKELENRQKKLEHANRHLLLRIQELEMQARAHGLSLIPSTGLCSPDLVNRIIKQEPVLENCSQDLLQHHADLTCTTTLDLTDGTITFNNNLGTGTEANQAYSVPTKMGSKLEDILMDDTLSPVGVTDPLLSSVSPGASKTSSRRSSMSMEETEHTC
Briefly: reducers of TRPM1 reporter luminescence, concentration series – cell-based, SK-MEL-5, cherry-picked, set 3, MITF inhibitor project, dose response (AID 493073).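 Note: SK-MEL-5 melanoma cells with luciferase driven by the MITF target TRPM1 promoter.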 In kind it is functional.

The test system of test [3] is INS1. As to the kind of experiment: INS-1E survival protection against cytokine death – cell-based, luminescence, retest, dose response (AID 449756).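 Note: cell death triggered by IL-1 beta plus TNF-alpha plus IFN-gamma mixture; protective hits raise ATP signal compared with cytokine alone wells.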 It is filed as functional. The settings on record: Rattus norvegicus.
A short description of test [4]: cytotoxicity in MITF-independent A375 cells – cell-based, CellTiter-Glo luminescence, dry powder, set 9, counter-screen for MITF modulator project, dose response (AID 651591). In kind it is functional. The settings on record: A-375.
The nature of test [5]: growth inhibition of SK-MEL-5 melanoma cells – cell-based, CellTiter-Glo luminescence, dry powder, set 8, orthogonal assay for MITF inhibitor project, dose response (AID 651586). In kind it is functional.
Test [6] relates to Streptococcus. Briefly: GAS UMAA2166 growth inhibition – luminescence, BacTiterGlo, counter-screen for streptokinase expression inhibitor project, dose response (AID 1915).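 Note: potency for reduction of bacterial viability or growth.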 It is filed as functional, organism-based.
Test [7] can be described thus: viability of HCT116 lacking mutant beta-catenin – cell-based, human colon tumor, dose response (AID 1045).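 Note: HCT116 colon tumor cells with beta catenin knocked out; cells exposed to compound for 60 hours.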 It is filed as functional.
Test [8] can be described thus: cytotoxicity in melanoma parental cells – cell-based, CellTiter-Glo, dry powder, set 6, MITF inhibitor project, dose response (AID 624429). It is filed as functional. Particulars: SK-MEL-5.
Test [9] can be described thus: MITF Orthogonal Assay: MALME3 CTG Assay Measured in Cell-Based System Using Plate Reader - 2084-04_Inhibitor_Dose_DryPowder_Activity_Set6. In kind it is functional. Particulars: MALME-3.
For test [10], the system named is Streptococcus sp. 'group A'. As to the kind of experiment: Streptococcus pyogenes SK(-)GAS viability under kanamycin – luminescence, BacTiterGlo, confirmation, counter-screen for streptokinase expression inhibitor project, dose response (AID 1900). In kind it is functional, organism-based.
Test [11] is described as follows: MITF Orthogonal Assay: SK-MEL-5 CTG Assay Measured in Cell-Based System Using Plate Reader - 2084-02_Inhibitor_Dose_DryPowder_Activity_Set5. It is filed as functional.
Test [12] in a line: growth inhibition of MALME3 cells – cell-based, CellTiter-Glo luminescence, dry powder, set 5, orthogonal assay for MITF inhibitor project, dose response (AID 651584). It is filed as functional. Particulars: MALME-3.
The nature of test [13]: inhibitors of TRPM1-promoter reporter in SK-MEL-5 – cell-based, luciferase, dry powder, set 9, MITF inhibitor project, dose response (AID 651588). In kind it is functional.
The nature of test [14]: Vero E6 cell cytotoxicity, dose response, cytotoxicity control for non-replicating M. tuberculosis project, secondary assay (AID 492998). In kind it is functional, VeroE6. The settings on record: Vero C1008.
Test [15] in a line: THP-1 cell cytotoxicity, dose response, cytotoxicity control for non-replicating M. tuberculosis project (AID 489025). It is filed as functional.
The nature of test [16]: MITF Measured in Cell-Based System Using Plate Reader - 2084-01_Inhibitor_Dose_DryPowder_Activity_Set7. It is filed as functional.
Test [17] can be described thus: cytotoxicity in MITF-independent A375 cells – cell-based, CellTiter-Glo luminescence, dry powder, set 4, counter-screen for MITF inhibitor project, dose response (AID 624364).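 Note: A375 melanoma cells are MITF independent so this is a counter screen.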 In kind it is functional. The settings on record: A-375.
Test [18] in a line: viability loss in MITF-independent A375 cells – cell-based, CellTiter-Glo luminescence, dry powder, set 7, counter-screen for MITF inhibitor project, dose response (AID 624490). In kind it is functional. Particulars: A-375.
Test [19] can be described thus: viability loss in MITF-independent A375 cells – cell-based, CellTiter-Glo luminescence, dry powder, set 2, counter-screen for MITF inhibitor project, dose response (AID 624489).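 Note: actives are compounds lowering A375 viability meaning general cytotoxicity.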 It is filed as functional. The settings on record: A-375.
The target of test [20] is T2, Streptokinase A (Streptococcus pyogenes serotype M1, UniProt P10520).
T2 sequence (P10520 whole entry): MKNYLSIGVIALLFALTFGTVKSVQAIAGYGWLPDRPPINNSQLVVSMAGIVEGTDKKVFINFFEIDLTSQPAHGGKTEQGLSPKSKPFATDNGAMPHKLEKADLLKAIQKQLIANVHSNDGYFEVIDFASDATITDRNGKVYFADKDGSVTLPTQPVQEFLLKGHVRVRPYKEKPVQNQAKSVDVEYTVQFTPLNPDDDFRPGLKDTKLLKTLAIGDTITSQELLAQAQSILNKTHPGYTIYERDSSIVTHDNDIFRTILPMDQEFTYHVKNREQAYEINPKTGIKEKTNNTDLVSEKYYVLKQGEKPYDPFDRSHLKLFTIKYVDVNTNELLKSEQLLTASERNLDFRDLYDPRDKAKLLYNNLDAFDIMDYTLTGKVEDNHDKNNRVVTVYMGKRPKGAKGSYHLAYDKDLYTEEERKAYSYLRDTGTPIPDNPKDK
Briefly: viability-normalized secreted streptokinase activity reduction – plasminogen activation absorbance, OD405, dose response (AID 1914).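 Note: secreted streptokinase activity via plasminogen activation per viability signal from cell pellet.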 In kind it is functional, Streptococcus pyogenes M1 GAS.

Test [21] in a line: MITF Measured in Cell-Based System Using Plate Reader - 2084-01_Inhibitor_Dose_DryPowder_Activity_Set6. In kind it is functional.
Test [22] is described as follows: HepG2 cell cytotoxicity, dose response, cytotoxicity control for non-replicating M. tuberculosis project (AID 489018). The settings on record: Mycobacterium tuberculosis. It is filed as functional.
Test [23] in a line: cells. It is filed as functional.
The nature of test [24]: viability of PTEN-deleted HCT116 cells – cell-based, HCT116 PTEN knockout, dose response (AID 1047).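 Note: HCT116 colon tumor cells with PTEN knocked out; cells exposed to compound for 60 hours before readout; potency for loss of cell viability measured by luminescence.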 In kind it is functional.
A short description of test [25]: viability loss in MITF-independent A375 cells – cell-based, CellTiter-Glo luminescence, dry powder, set 6, counter-screen for MITF inhibitor project, dose response (AID 624488). In kind it is functional. Particulars: A-375.
A short description of test [26]: Dd2 parasite growth inhibition in erythrocytes – SYBR Green, dry powder samples, set 9, dose response (AID 1159568). In kind it is functional, cell-based.
A short description of test [27]: P. falciparum Dd2 growth inhibitors, dose response, SYBR Green, cherry-picked samples (AID 1159567). In kind it is functional, cell-based.
The target of test [28] is G-protein coupled receptor 183 (Homo sapiens, UniProt P32249). As to the kind of experiment: SAR confirmation of small molecule antagonists of the EBI2 receptor via a luminescent beta-arrestin assa. It is filed as functional.
Sequence of G-protein coupled receptor 183 (P32249 whole entry): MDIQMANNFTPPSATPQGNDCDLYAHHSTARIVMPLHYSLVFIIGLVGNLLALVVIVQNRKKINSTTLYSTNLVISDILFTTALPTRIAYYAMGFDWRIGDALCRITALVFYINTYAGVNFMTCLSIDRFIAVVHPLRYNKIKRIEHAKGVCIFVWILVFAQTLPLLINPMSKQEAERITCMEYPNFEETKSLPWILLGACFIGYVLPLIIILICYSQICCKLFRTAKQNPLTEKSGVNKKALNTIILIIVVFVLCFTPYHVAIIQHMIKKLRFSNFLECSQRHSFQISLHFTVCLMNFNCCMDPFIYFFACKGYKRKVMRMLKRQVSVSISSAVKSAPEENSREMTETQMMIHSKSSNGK
For test [29], the target named is Metabotropic glutamate receptor 7 (Homo sapiens, UniProt Q14831). As to the kind of experiment: potentiation of glutamate EC20 at mGlu7 – cell-based, calcium mobilization, Galpha15, dose response (AID 743384). In kind it is functional.
Sequence of Metabotropic glutamate receptor 7 (Q14831 whole entry): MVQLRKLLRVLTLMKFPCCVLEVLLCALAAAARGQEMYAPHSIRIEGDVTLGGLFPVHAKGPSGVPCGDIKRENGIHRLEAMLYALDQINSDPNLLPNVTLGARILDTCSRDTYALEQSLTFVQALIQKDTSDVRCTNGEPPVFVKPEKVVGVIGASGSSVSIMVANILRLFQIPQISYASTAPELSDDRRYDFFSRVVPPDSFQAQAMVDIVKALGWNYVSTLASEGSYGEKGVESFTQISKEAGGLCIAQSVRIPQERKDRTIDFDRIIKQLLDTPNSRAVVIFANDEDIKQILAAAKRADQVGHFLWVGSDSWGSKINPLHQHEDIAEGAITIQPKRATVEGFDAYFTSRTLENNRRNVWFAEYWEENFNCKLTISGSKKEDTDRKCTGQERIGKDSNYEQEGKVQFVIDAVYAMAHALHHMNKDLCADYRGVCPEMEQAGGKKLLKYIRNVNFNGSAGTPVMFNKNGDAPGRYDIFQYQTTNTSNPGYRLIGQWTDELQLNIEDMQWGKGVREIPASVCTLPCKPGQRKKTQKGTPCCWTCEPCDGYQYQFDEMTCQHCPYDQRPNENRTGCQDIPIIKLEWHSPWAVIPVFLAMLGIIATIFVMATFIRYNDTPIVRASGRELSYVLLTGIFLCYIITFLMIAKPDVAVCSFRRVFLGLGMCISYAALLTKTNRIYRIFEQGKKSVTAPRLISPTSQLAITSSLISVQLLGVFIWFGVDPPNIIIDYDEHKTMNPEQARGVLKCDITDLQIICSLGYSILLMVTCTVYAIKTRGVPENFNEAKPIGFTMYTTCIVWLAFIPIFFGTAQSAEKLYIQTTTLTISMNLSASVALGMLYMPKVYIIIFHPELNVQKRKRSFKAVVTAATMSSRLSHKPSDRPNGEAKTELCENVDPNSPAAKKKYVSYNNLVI
Test [30] is described as follows: cells. In kind it is functional, cell-based. Particulars: INS-1E.
Test [31] can be described thus: IC50 of insulin release inhibition, rat insulinoma INS-1E line, 5 mM glucose, cell-based (AID 1117331). In kind it is functional.

Counter-ions that a name gives are not always drawn. The source made the active and inactive calls.

Sequence of Glutathione-S-transferase (Q26513 whole entry): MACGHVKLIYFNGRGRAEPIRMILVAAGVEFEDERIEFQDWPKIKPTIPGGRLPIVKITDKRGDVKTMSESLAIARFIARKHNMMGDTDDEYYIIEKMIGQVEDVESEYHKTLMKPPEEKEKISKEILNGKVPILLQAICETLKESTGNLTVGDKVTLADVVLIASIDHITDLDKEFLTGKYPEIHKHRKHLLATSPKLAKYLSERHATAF

For `O=[N+]([O-])c1ccc(-c2ccc(/C=N/c3c(-c4ccco4)nc4ccccn34)o2)cc1`, the IC50 in [1] is 50.3 µM (active).

Turning to `Cc1nc2ccccc2n1/N=C/c1ccc([N+](=O)[O-])s1`, the AC50 is 3.51 µM (active) in [2]; 2.01 µM (active) in [3]; > 70 µM (inactive) in test [4]; > 70 µM (inactive) in [5]; 10.7 µM (active) in test [8]; 22.9 µM (active) in test [9]. The AC50 in test [11] was 6.24 µM (active); in test [12], 22.9 µM (active); in [13], 7.21 µM (active); in [16], 1.1 µM (active); in test [17], > 70 µM (inactive); in [18], > 70 µM (inactive). The AC50 in test [19] is > 70 µM (inactive); in [21] it was 2.52 µM (active); in test [25] it was 47.3 µM (active). Further, the EC50 in [6] is 10.7 µM (active); in test [7] it was 2.47 µM (active); in test [10] it was 3.63 µM (active); in [20], > 150 µM (not active); in [24] it was 3.72 µM (active). Further, the CC50 in test [14] is 9.87 µM (active); in test [15] it was 5.13 µM (active); in test [22] it was 12.4 µM (active). For the same molecule, in test [23], the IC50 is 430 nM (active).

Regarding `CN1C(=O)c2cc(NC(=O)c3cccc(F)c3)ccc2OC[C@H]2O[C@H](CC(=O)NCC3CCCCC3)CC[C@H]21`, the AC50 in test [26] was 8.12 µM (active); in [27], 8.99 µM (active).

In the case of `CCN1CCN(C(=O)/C=C/c2ccc(Br)cc2)CC1`, in test [28], the concentration for half-maximal inhibition (IC50) was 15.8 nM (active).

Turning to `CCOc1ccc(-n2c(C)cc(C(=O)CSCc3cccc(C)c3)c2C)cc1`, the EC50 in test [29] was 10 µM (active).

Turning to `CCN(CC)CCCN(c1ccccc1)C1Cc2ccccc2C1` [APRINDINE HYDROCHLORIDE], the IC50 in test [30] is > 33.3 µM (inactive); in test [31], 7.13 µM (inactive).
